According to the CheMixHub viscosity set:

Assay: xn = mol fraction of the nth substance listed

CC1CCCCC1 + c1ccccc1
303.15 K, 101 kPa
Conditions	viscosity [mPa·s]
x1 = 0.203	0.5138
x1 = 0.2997	0.5057
x1 = 0.4008	0.5059
x1 = 0.5041	0.5117
x1 = 0.604	0.5205
x1 = 0.7992	0.5611
x1 = 0.9027	0.5961

Cc1cccc([N+](=O)[O-])c1 + Cc1ccc(C)cc1
308.15 K, 101.33 kPa
Conditions	viscosity [mPa·s]
x2 = 0.1004	1.322
x2 = 0.2046	1.122
x2 = 0.2963	1.004
x2 = 0.4016	0.908
x2 = 0.4954	0.846
x2 = 0.6076	0.768
x2 = 0.7023	0.706
x2 = 0.8036	0.649
x2 = 0.8975	0.6

CC1CCCCC1 + C1CCCCC1
303.15 K, 101 kPa
Conditions	viscosity [mPa·s]
x2 = 0.0996	0.6425
x2 = 0.1991	0.6465
x2 = 0.2949	0.6574
x2 = 0.3948	0.6697
x2 = 0.497	0.6849
x2 = 0.6005	0.7041
x2 = 0.699	0.7258
x2 = 0.7978	0.7519
x2 = 0.8955	0.7854

Cc1ccccc1[N+](=O)[O-] + Cc1cccc(C)c1
308.15 K, 101.33 kPa
Conditions	viscosity [mPa·s]
x2 = 0.1014	1.358
x2 = 0.2022	1.154
x2 = 0.3044	1.027
x2 = 0.4036	0.938
x2 = 0.499	0.87
x2 = 0.6052	0.792
x2 = 0.6913	0.735
x2 = 0.8068	0.654
x2 = 0.8993	0.596

CCOC(=O)c1ccccc1 + CCCO
viscosity [mPa·s], 101.3 kPa
Conditions	x1 = 0.0548	x1 = 0.1155	x1 = 0.1829	x1 = 0.2582	x1 = 0.3431	x1 = 0.4393	x1 = 0.5493	x1 = 0.6763	x1 = 0.8246
303 K	1.619	1.637	1.645	1.657	–	1.688	1.703	1.72	1.734
308 K	1.471	1.486	1.499	1.51	1.525	1.537	1.552	1.568	1.579
313 K	1.326	1.337	1.351	1.364	1.372	1.386	1.403	1.414	1.432
318 K	1.235	1.247	1.257	1.272	1.28	1.291	1.302	1.314	1.327
323 K	1.175	1.188	1.194	1.205	1.21	1.219	1.227	1.235	1.244

CCCCCCCCCl + CCCCC
298 K, 101.3 kPa
Conditions	viscosity [mPa·s]
x2 = 0.1047	0.9664
x2 = 0.2064	0.8559
x2 = 0.3057	0.7414
x2 = 0.4042	0.6389
x2 = 0.5005	0.5441
x2 = 0.6018	0.4631
x2 = 0.7019	0.3926
x2 = 0.8048	0.324
x2 = 0.8982	0.2747

CCCCCl + CC(C)(C)O
viscosity [mPa·s], 101 kPa
Conditions	x1 = 0.1052	x1 = 0.2087	x1 = 0.315	x1 = 0.4159	x1 = 0.5172	x1 = 0.6059	x1 = 0.7101	x1 = 0.8039	x1 = 0.8976
298.15 K	2.188	1.359	0.991	0.7867	0.6596	0.582	–	0.4746	0.4434
313.15 K	1.279	0.9194	0.7181	0.5981	0.5189	–	0.4243	0.3963	0.377
